According to patent US6339103B1, “Fungicides” (Aventis CropScience UK Limited, priority 1998, dated 2002):

Tested on: Plasmopara viticola
Test: Vine downy mildew disease control, foliar spray on vines
Type: in vivo
Details: aqueous solution sprayed onto vines to run off, then inoculated with 100,000 spores per ml, compared with untreated plants
Experimental: Aqueous solutions of the compound of Example 1 were sprayed at various concentrations onto vines to run off using a hand-sprayer. Plants were then inoculated by hand spraying with a spore suspension of 100,000 spores per ml of Plasmopara viticola. For the purposes of comparison the vines were sprayed also with the commercially available propamocarb hydrochloride.
Plants were assessed for degree of disease control compared with untreated plants.

Row | Structure (SMILES) | % Control (rate 400 ppm) [%] | % Control (rate 800 ppm) [%]
1 | CCCOC(=O)NCCCN(C)C.CCO[PH](=O)O [Compound of invention, dimethyl-[3-(propoxycarbonylamino)propyl]ammonium O-ethylphosphonate] | 27.6 | 81.5
2 | CCCOC(=O)NCCCN(C)C.Cl [propamocarb hydrochloride, propyl 3-(dimethylamino)propylcarbamate hydrochloride] | 4.2 | 14.6
